ChEMBL document CHEMBL1148189, “New diterpenes from the gorgonian Solenopodium excavatum” (1993)
Values after ≈ are worked out from the molar mass of the structure shown. Active and inactive are the calls of the source. No cut-off for these calls is given here.

Tested on: P388
Assay: Cytotoxicity against mouse P388 cells
Assay type: functional
Conditions: not given

| SMILES | Activity |
| --- | --- |
| CC(=O)O[C@@H]1[C@H]2[C@@]3(C)O[C@H]3[C@@H](O)[C@H](OC(C)=O)[C@]2(C)[C@@H](OC(C)=O)[C@H](OC(C)=O)C/C(C)=C\[C@@H]2OC(=O)[C@]3(C)O[C@@]213 | inactive |
| CC(=O)OC/C1=C/[C@@H]2OC(=O)[C@]3(C)O[C@]23[C@H](OC(C)=O)[C@H]2[C@@]3(C)O[C@H]3C[C@H](OC(C)=O)[C@]2(C)[C@@H](OC(C)=O)C[C@H]1OC(C)=O | inactive |
| CC(=O)O[C@H]1C[C@@H]2O[C@]2(C)[C@@H]2[C@@H](OC(C)=O)[C@]34O[C@@]3(C)C(=O)O[C@H]4/C=C(/CO)[C@H](OC(C)=O)C[C@H](OC(C)=O)[C@@]12C | inactive |
| CC(=O)O[C@H]1C[C@@H](OC(C)=O)/C(C)=C\[C@@H]2OC(=O)[C@]3(C)O[C@]23[C@H](OC(C)=O)[C@H]2[C@@](C)(O)[C@H](OC(C)=O)C=C[C@]12C | inactive |
| CCCC(=O)O[C@@H]1C/C(C)=C\[C@@H]2OC(=O)[C@]3(C)O[C@]23[C@H](OC(C)=O)[C@H]2[C@@]3(C)O[C@H]3[C@@H](O)[C@H](OC(C)=O)[C@]2(C)[C@H]1OC(C)=O | inactive |
| CC(=O)O[C@@H]1[C@H]2[C@@H](C)[C@@H](O)[C@@H](O)[C@H](OC(C)=O)[C@]2(C)[C@@H](OC(C)=O)[C@H](OC(C)=O)C/C(C)=C\[C@@H]2OC(=O)[C@]3(C)O[C@@]213 | inactive |
| CC(=O)O[C@@H]1[C@@H]2O[C@]2(C)[C@@H]2[C@@H](OC(C)=O)[C@]34O[C@@]3(C)C(=O)O[C@H]4/C=C(/C)C[C@@H](OC(C)=O)[C@H](OC(C)=O)[C@@]2(C)[C@H]1OC(C)=O | inactive |
| CC(=O)O[C@@H]1[C@H]2C(C)=C[C@@H](O)[C@H](OC(C)=O)[C@]2(C)[C@@H](OC(C)=O)[C@H](OC(C)=O)C/C(C)=C\[C@@H]2OC(=O)[C@]3(C)O[C@@]213 | inactive |

Same assay, conditions: read-out: ED50 (the source's name)

| SMILES | EC50 [µg/mL] |
| --- | --- |
| CCCC(=O)O[C@@H]1C/C(C)=C\[C@@H]2OC(=O)[C@]3(C)O[C@]23[C@H](OC(C)=O)[C@H]2C(C)=C[C@@H](O)[C@H](OC(C)=O)[C@]2(C)[C@H]1OC(C)=O [STECHOLIDE I] | 23 (≈ 38.8 µM) |
